Results reported in patent US8889629B2, “Use of a cyclic undecapeptide for the preparation of a medicament for administration during myocardial ischaemic events” (Debiopharm International SA, priority 2005, dated 2014).

Legend:
[1] = test system: human immunodeficiency virus; settings: cited from earlier work
[2] = test system: myocardial infarction (ischemia-reperfusion); assay: Model of ischemia-reperfusion in the mouse, post-infarction period (infarction size, ventricular remodeling, survival); assay type: in vivo
Protocol: After anesthesia, the mice are intubated and ventilated with a rodent ventilator. The rectal temperature is controlled and maintained at 38°-39° C. After sternotomy, the anterior interventricular artery is ligatured with an 8-0 polypropylene thread. The ischemia is visualized through the appearance of an elevated ST segment on the ECG (electrocardiogram) and the paleness of the myocardium. After 25 minutes of occlusion, the ligature is released and the reperfusion is verified by visual inspection and disappearance of the upshift in the ST segment. The thoracic wall is closed by suturing and the mice are kept in a controlled-temperature atmosphere.
One group of animals receives the carrier for [MeAla]^3-[EtVal]^4-CsA; another group is treated with [MeAla]^3-[EtVal]^4-CsA by intravenous injection (single injection at 10 mg/kg), 3 minutes before the ligature is released. The animals are monitored for 30 days and the mortality is reported for each group.
Four weeks after the reperfusion, the left ventricular remodeling is studied by Doppler echocardiography and the left ventricular ejection fraction is measured.
The zone at risk and the size of the infarction are determined in a group of animals that have undergone 25 minutes of coronary occlusion followed by 24 hours of reperfusion. After a brief reocclusion of the anterior interventricular artery, a blue dye is injected via the vena cava so as to determine the zone at risk. The animals are anesthetized and the heart is excised. The ventricle is cut into 5 thin slices and photographed. Incubation of these slices in 2,3,5-triphenyltetrazolium for 15 minutes at 37° C. makes it possible to differentiate the live (brick red) and necrosed (pale yellow) zones of the myocardium. The slices are photographed. The areas of the zones at risk and of the infarcted myocardium are determined by planimetry. The size of the infarction and the size of the zone at risk are calculated and expressed as percentage of left ventricular weight.

[3] = test system: myocardial infarction (ischemia-reperfusion); assay: Model of ischemia-reperfusion in the rabbit, cardioprotective effect (infarction size); assay type: in vivo
Protocol: The aim of this study is to test the cardioprotective effect of the cyclic undecapeptide of formula (I), otherwise referred to as [MeAla]^3-[EtVal]^4-CsA, in terms of reduction in the size of the myocardial infarction measured 4 hours after the occurrence of the infarction.
After tracheotomy and ventilation with ambient air, a thoracotomy is performed in the fourth left intercostal space. A marginal branch of the left circumflex coronary artery is ligatured using a 3.0 silk suture thread. During the procedure, the temperature, the heart rate and the blood pressure are controlled. After occlusion for 30 minutes, the ligature is released (reperfusion) and the animals are kept in a controlled atmosphere for 4 hours before euthanasia.
One group of animals receives the pharmaceutical carrier for [MeAla]^3-[EtVal]^4-CsA, another group is treated with [MeAla]^3-[EtVal]^4-CsA intravenously in the form of a single injection respectively of 20 mg/kg, one minute before the ligature is released. Four hours after the reperfusion, the coronary artery is briefly reoccluded and a blue dye is injected intravenously so as to determine the zone at risk. […] The areas of the zones at risk and of the infarcted myocardium or area of necroses are determined by planimetry. The size of the infarction and the size of the zone at risk are calculated and expressed as percentage of left ventricular weight.

[4] = test system: MPTP of mitochondria isolated from the brain; settings: Hansson et al. 2004; cited from earlier work
[5] = compared with cyclosporin A; cited from earlier work
[6] = test system: septic shock with myocardial dysfunction; assay: Model of septic shock in the mouse (cecal ligature and puncture), survival; assay type: in vivo; settings: 10 mg/kg parenteral injection just after induction of septic shock, 72 hours after induction of the sepsis (FIG. 2)
Protocol: After the mice had been anesthetized, a peritonitis is induced by cecal ligature and puncture, as follows: a median laparotomy is performed, the cecum is lifted out and a single puncture of said cecum is performed below the ileocecal valve with a 21-gauge needle. The cecum is put back into the abdominal cavity, which is then sutured in 2 planes. After the mice have come round, they are given a parenteral injection of the analgesic nalbuphine.
One group of animals receives physiological saline (control group); another group is treated with [MeAla]^3-[EtVal]^4-CsA at a rate of 10 mg/kg by parenteral injection just after surgical induction of septic shock. The animals are monitored for 4 days and the mortality is reported for each group.

## [MeAla]^3-[EtVal]^4-CsA
[1]
  activity in terms of inhibiting the action of the human immunodeficiency virus: strong activity
[2]; mouse, 10 mg/kg i.v. 3 minutes before ligature release, Doppler echocardiography 4 weeks after reperfusion
  Left ventricular ejection fraction ± SD: 77 ± 6%
[2]; mouse, 10 mg/kg i.v. 3 minutes before ligature release, vs carrier (FIG. 1)
  mortality rate at 4 weeks: a decrease in the mortality rate
[2]; mouse, 10 mg/kg i.v., 24 hours after reperfusion, vs carrier (table 2)
  decrease in the size of the infarction in the zone at risk: ~50%
[2]; mouse, 25 min occlusion, single i.v. injection 10 mg/kg 3 minutes before ligature release, 24 hours after reperfusion
  Infarction size (AN/AR ± SD): 32.1 ± 7.3%
[2]; same dose of active compound
  beneficial effects when administration is too early or too late relative to the reperfusion: not obtained
[3]; 20 mg/kg i.v., 4 hours after reperfusion
  decrease in the size of the infarction in the zone at risk compared with pharmaceutical carrier: ~40%
[3]; 30 min occlusion, single i.v. injection 20 mg/kg one minute before ligature release, measured 4 hours after reperfusion
  Infarction size (AN/AR ± SD): 29 ± 6.0%
[4]
  neuroprotective potential: inhibition of MPTP: inhibition of MPTP
[5]
  immunosuppressive properties: not having the well-known immunosuppressive properties
[6]
  survival rate: approximately 60%
